Assay results: patent US9382295B2, “Cyclic depsipeptide compounds and their uses” (Cypralis Limited, priority 2012, dated 2016)
In brackets after ≈: the same amount, converted by molar mass. Where two headings read alike, the source gives them in different places. Numbered stars: 1 amine (or outer) side, 2 acyl side, 3 side chain; on linkers, the order of the positions; unused ones are H or OH. Square brackets hold non-standard residues; d marks the D form. Peptide text beside a SMILES is read from it. X19 = C[C@H](CCN1CCCC(C(F)(F)F)C1)[C@@H](O)[C@H](C(=O)[*:2])N(C)[*:1]; X30 = C[C@H](CCN(C)Cc1nnn[nH]1)[C@@H](O)[C@H](C(=O)[*:2])N(C)[*:1]; X17 = C[C@H](CCN(C)CCc1ccccn1)[C@@H](O)[C@H](C(=O)[*:2])N(C)[*:1]; X12 = C[C@H](CCN(C)Cc1ccncc1)[C@@H](O)[C@H](C(=O)[*:2])N(C)[*:1]; X24 = C[C@H](CCN(C)CC1COCCO1)[C@@H](O)[C@H](C(=O)[*:2])N(C)[*:1]; X7 = C[C@H](CCN(C)Cc1ccnn1C)[C@@H](O)[C@H](C(=O)[*:2])N(C)[*:1]; X34 = C[C@H](CCN1CCN(C)CC1)[C@@H](O)[C@H](C(=O)[*:2])N(C)[*:1]; d(aThr) = C[C@@H](O)[C@@H](N)C(=O)O; NMeL = CN[C@@H](CC(C)C)C(=O)O; dNMeL = CN[C@H](CC(C)C)C(=O)O; dNMeV = CN[C@@H](C(=O)O)C(C)C; Hiv = CC(C)[C@H](O)C(=O)O; Sar = CNCC(=O)O

What was measured:
[1] = Water solubility assay (pH 7.8 buffer); format: physicochemical
Experimental: ***Water Solubility Assay (Measured in pH 7.8 Buffer)
The onset of precipitation, if it occurred, was detected by an increase in absorbance at 650 nm.
Assay Buffer: 35 mM HEPES pH 7.8
Stock solutions of Control and Test Compounds: 10 mM in 100% DMSO
10 mM stock solutions of control and test compounds were prepared in 100% DMSO. A series of dilutions were prepared from the stock in DMSO so that the final concentrations in the assay were 0, 3.33, 10, 25, 50, 75 and 100 μM and DMSO was limited to 1%.
Assay buffer (247.5 μl) was placed into flat bottomed transparent 96-well plate. For blank samples DMSO (2.5 μl) was added. For test and control samples 2.5 μl of the appropriate DMSO dilution stocks were added to the appropriate well. All test and control compounds were performed in triplicate.
The plates were sealed with adhesive plate seal and shaken at 250 rpm at 25° C. for 18 h on a plate shaker.
After incubation the plate seals were taken off and any bubbles observed in wells removed. The plates were read on a SpectraMaxM5 with a 5 s pre-shake at 650 nm.
Data files were transferred to the appropriate worksheet and the solubility range of the compounds was calculated from the data.
The values shown in the tables indicate the concentration in μM (micromolar) at which the compound remains in solution.

cyclophilin D (Cyp D) = cyclophilin D (Cyp D) (Homo sapiens, UniProt P30405); assay: Protease-free PPIase assay, cyclophilin D; format: biochemical
Sequence of cyclophilin D (Cyp D) (P30405 30-207): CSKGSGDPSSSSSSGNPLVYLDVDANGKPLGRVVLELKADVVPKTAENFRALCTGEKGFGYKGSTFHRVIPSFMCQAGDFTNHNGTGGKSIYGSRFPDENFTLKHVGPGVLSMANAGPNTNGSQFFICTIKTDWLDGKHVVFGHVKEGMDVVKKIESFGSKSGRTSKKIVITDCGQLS
Experimental: (§1) The protease-free PPIase assay measures the rate of cis to trans conversion of a peptide substrate catalyzed by the enzymes cyclophilin A and cyclophilin D. Addition of a cyclophilin inhibitor (e.g., a test compound) slows the catalyzed rate and a Ki value is obtained. […] 35 mM HEPES pH 7.8, filtered through a 0.2 μm filter. 50 μM DTT was added prior to use each day and then the buffer was stored on ice. Succinimide-[…]) (from Bachem AG, L-1400), 20 mg/ml prepared in 0.5 M LiCl in trifluoroethanol. All readings were taken with an Agilent 8453 Spectrophotometer which consists of a cuvette holder, stirrer and chiller to maintain a stirred cuvette temperature of 10.0±0.1° C. The temperature is monitored by the use of temperature probe. […] The inhibitor was diluted in 100% DMSO, and then added to the assay to a maximum final concentration of 0.5% DMSO in the assay. A blank spectrum was obtained, then 3 μL of enzyme was added (2 nM final concentration) and then 3 μL substrate (60 μM final concentration) added. The absorbance was measured at 330 nm for 300 s or 500 s for blank runs (NOTE: the substrate must be added in one quick injection and the measurements started immediately to minimize mixing errors). A first order rate equation was fitted to the absorbance data, for each concentration of inhibitor, to obtain the rate constant (the first 10 to 15 seconds were excluded as mixing causes errors in this portion of curve). The catalytic rate was calculated from the enzymatic rate constant minus the background rate constant. An exponential curve was generated using the catalytic rate constants versus the inhibitor concentration to obtain the Ki value for the inhibitor. The Ki value is indicative of the binding affinity between the test compound and cyclophilin A or cyclophilin D.

cyclophilin A (Cyp A) = target: T1, cyclophilin A (Cyp A) (Homo sapiens, UniProt P62937); assay: Protease-free PPIase assay, cyclophilin A; format: biochemical
T1 construct: purchased Sigma C3805
T1 sequence (P62937 whole entry): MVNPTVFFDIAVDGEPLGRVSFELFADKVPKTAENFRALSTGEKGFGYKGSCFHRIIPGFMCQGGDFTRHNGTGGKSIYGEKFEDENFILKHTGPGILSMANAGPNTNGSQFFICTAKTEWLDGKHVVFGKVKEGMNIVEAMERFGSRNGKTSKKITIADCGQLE
Experimental: as §1, with “ice. Human recombinant cyclophilin A (Cyp A) (Sigma C3805) enzyme was diluted to 1 μM with enzyme dilution buffer (20 mM HEPES pH 7.8, 40% glycerol, 50 μM DTT and 1 μM BSA) and stored at -20° C.” for “ice.”

[2] = 35 mM HEPES buffer, 35 mM HEPES pH 7.8, 1% DMSO, 25° C., 18 h, concentration at which compound remains in solution, read-out: Solubility
[3] = protease-free PPIase assay, class symbols, read-out: CypD Ki
[4] = protease-free PPIase assay, class symbols, read-out: CypA Ki

Structure (SMILES) | solubility at 18 h ([1]; pH 7.8) [µM] | Ki (cyclophilin D (Cyp D)) [nM] | Ki (cyclophilin A (Cyp A)) [nM] | solubility at 18 h [1, 2] [µM] | Ki (cyclophilin D (Cyp D); [3]) [nM] | Ki (cyclophilin A (Cyp A); [4]) [nM]
CO[C@H](C)[C@H]1NC(=O)[C@@H]([C@H](O)[C@H](C)CCN2CCOCC2)N(C)C(=O)[C@@H](C(C)C)N(C)C(=O)[C@@H](CC(C)C)NC(=O)[C@@H](CC(C)C)N(C)C(=O)[C@H](C(C)C)OC(=O)[C@@H](C)NC(=O)[C@@H](CC(C)C)N(C)C(=O)[C@@H](CC(C)C)NC(=O)[C@H](CC(C)C)N(C)C(=O)CN(C)C1=O (stereo in doubt) [Example 7, cyclo-[(3R,4R,5S)-4-(hydroxy)-3-methyl-5-(methylamino)-1-N-morpholino-hexanoic acid-(O-methyl-Thr)-Sar-MeLeu-Leu-MeLeu-Ala-D-Hiv-MeLeu-Leu-MeVal]] | 50 to 75 (≈ 66 to 99.1 µg/mL) | 1 to 25 | 25 to 100 | – | – | –
CC(C)C[C@@H]1C(=O)N[C@H](CC(C)C)C(=O)N(C)[C@H](C(C)C)C(=O)N(C)[C@H]([C@H](O)[C@H](C)CCN(C)Cc2ccncc2)C(=O)N[C@H]([C@@H](C)O)C(=O)N(C)CC(=O)N(C)[C@@H](CC(C)C)C(=O)N[C@H](CC(C)C)C(=O)N(C)[C@H](CC(C)C)C(=O)N[C@H](C)C(=O)O[C@@H](C(C)C)C(=O)N1C [Example 3, cyclo-[(3R,4R,5S)-4-(hydroxy)-3-methyl-5-(methylamino)-1-N-(methyl-pyridin-4-ylmethyl-amino)-hexanoic acid-Thr-Sar-MeLeu-Leu-MeLeu-Ala-D-Hiv-MeLeu-Leu-MeVal]] (cyclo([Hiv][dNMeL][dL][dNMeV][X12][d(aThr)][Sar][NMeL][dL][dNMeL][dA])) | – | – | – | 50 to 75 (≈ 67.1 to 101 µg/mL) | 1 to 25 | 1 to 25
CC(C)C[C@@H]1C(=O)N[C@H](CC(C)C)C(=O)N(C)[C@H](C(C)C)C(=O)N(C)[C@H]([C@H](O)[C@H](C)CCN(C)CCc2ccccn2)C(=O)N[C@H]([C@@H](C)O)C(=O)N(C)CC(=O)N(C)[C@@H](CC(C)C)C(=O)N[C@H](CC(C)C)C(=O)N(C)[C@H](CC(C)C)C(=O)N[C@H](C)C(=O)O[C@@H](C(C)C)C(=O)N1C [Example 4, cyclo-{(3R,4R,5S)-4-(hydroxy)-3-methyl-5-(methylamino)-1-N-[methyl-2-(pyridin-2-yl)-ethyl-amino]-hexanoic acid-Thr-Sar-MeLeu-Leu-MeLeu-Ala-D-Hiv-MeLeu-Leu-MeVal}] (cyclo([Hiv][dNMeL][dL][dNMeV][X17][d(aThr)][Sar][NMeL][dL][dNMeL][dA])) | – | – | – | 25 to 50 (≈ 33.9 to 67.8 µg/mL) | 1 to 25 | 1 to 25
CC(C)C[C@@H]1C(=O)N[C@H](CC(C)C)C(=O)N(C)[C@H](C(C)C)C(=O)N(C)[C@H]([C@H](O)[C@H](C)CCN2CCCC(C(F)(F)F)C2)C(=O)N[C@H]([C@@H](C)O)C(=O)N(C)CC(=O)N(C)[C@@H](CC(C)C)C(=O)N[C@H](CC(C)C)C(=O)N(C)[C@H](CC(C)C)C(=O)N[C@H](C)C(=O)O[C@@H](C(C)C)C(=O)N1C (stereo partly drawn) [Example 9, cyclo-{(3R,4R,5S)-4-(hydroxy)-3-methyl-5-(methylamino)-1-N-[3-trifluoromethyl-piperidinyl]-hexanoic acid-Thr-Sar-MeLeu-Leu-MeLeu-Ala-D-Hiv-MeLeu-Leu-MeVal}] (cyclo([Hiv][dNMeL][dL][dNMeV][X19][d(aThr)][Sar][NMeL][dL][dNMeL][dA])) | – | – | – | 10 to 25 (≈ 13.7 to 34.3 µg/mL) | 1 to 25 | 1 to 25
CC(C)C[C@@H]1C(=O)N[C@H](CC(C)C)C(=O)N(C)[C@H](C(C)C)C(=O)N(C)[C@H]([C@H](O)[C@H](C)CCN2CCN(C)CC2)C(=O)N[C@H]([C@@H](C)O)C(=O)N(C)CC(=O)N(C)[C@@H](CC(C)C)C(=O)N[C@H](CC(C)C)C(=O)N(C)[C@H](CC(C)C)C(=O)N[C@H](C)C(=O)O[C@@H](C(C)C)C(=O)N1C [Example 32, cyclo-[(3R,4R,5S)-4-(hydroxy)-3-methyl-5-(methylamino)-1-N—(N′-methylpiperazine)-hexanoic acid-Thr-Sar-MeLeu-Leu-MeLeu-Ala-D-Hiv-MeLeu-Leu-MeVal]] (cyclo([Hiv][dNMeL][dL][dNMeV][X34][d(aThr)][Sar][NMeL][dL][dNMeL][dA])) | – | 25 to 100 | 100 to 300 | – | – | –

Next, values leading:

solubility at 18 h ([1]; pH 7.8) [µM] | Ki (cyclophilin D (Cyp D)) [nM] | Ki (cyclophilin A (Cyp A)) [nM] | solubility at 18 h [1, 2] [µM] | Ki (cyclophilin D (Cyp D); [3]) [nM] | Ki (cyclophilin A (Cyp A); [4]) [nM] | Structure (SMILES)
– | – | – | 50 to 75 (≈ 67.2 to 101 µg/mL) | 1 to 25 | 1 to 25 | CC(C)C[C@@H]1C(=O)N[C@H](CC(C)C)C(=O)N(C)[C@H](C(C)C)C(=O)N(C)[C@H]([C@H](O)[C@H](C)CCN(C)Cc2ccnn2C)C(=O)N[C@H]([C@@H](C)O)C(=O)N(C)CC(=O)N(C)[C@@H](CC(C)C)C(=O)N[C@H](CC(C)C)C(=O)N(C)[C@H](CC(C)C)C(=O)N[C@H](C)C(=O)O[C@@H](C(C)C)C(=O)N1C [Example 5, cyclo-{(3R,4R,5S)-4-(hydroxy)-3-methyl-5-(methylamino)-1-N-[methyl-(2-methyl-2H-pyrazol-3-ylmethyl)-amino]-hexanoic acid-Thr-Sar-MeLeu-Leu-MeLeu-Ala-D-Hiv-MeLeu-Leu-MeVal}] (cyclo([Hiv][dNMeL][dL][dNMeV][X7][d(aThr)][Sar][NMeL][dL][dNMeL][dA]))
25 to 50 (≈ 33.3 to 66.6 µg/mL) | 1 to 25 | 1 to 25 | – | – | – | CC(C)C[C@@H]1C(=O)N[C@H](CC(C)C)C(=O)N(C)[C@H](C(C)C)C(=O)N(C)[C@H]([C@H](O)[C@H](C)CCN(C)Cc2nnn[nH]2)C(=O)N[C@H]([C@@H](C)O)C(=O)N(C)CC(=O)N(C)[C@@H](CC(C)C)C(=O)N[C@H](CC(C)C)C(=O)N(C)[C@H](CC(C)C)C(=O)N[C@H](C)C(=O)O[C@@H](C(C)C)C(=O)N1C [Example 6, cyclo-{(3R,4R,5S)-4-(hydroxy)-3-methyl-5-(methylamino)-1-N-[methyl-(1H-tetrazol-5-ylmethyl)-amino]-hexanoic acid-Thr-Sar-MeLeu-Leu-MeLeu-Ala-D-Hiv-MeLeu-Leu-MeVal}] (cyclo([Hiv][dNMeL][dL][dNMeV][X30][d(aThr)][Sar][NMeL][dL][dNMeL][dA]))
– | – | – | > 100 | 1 to 25 | 25 to 100 | CC(C)C[C@@H]1C(=O)N[C@H](CC(C)C)C(=O)N(C)[C@H](C(C)C)C(=O)N(C)[C@H]([C@H](O)[C@H](C)CCN(C)CC2COCCO2)C(=O)N[C@H]([C@@H](C)O)C(=O)N(C)CC(=O)N(C)[C@@H](CC(C)C)C(=O)N[C@H](CC(C)C)C(=O)N(C)[C@H](CC(C)C)C(=O)N[C@H](C)C(=O)O[C@@H](C(C)C)C(=O)N1C (stereo partly drawn) [Example 8, cyclo-{(3R,4R,5S)-4-(hydroxy)-3-methyl-5-(methylamino)-1-N-([1,4]dioxan-2-ylmethyl-methyl-amino)-hexanoic acid-Thr-Sar-MeLeu-Leu-MeLeu-Ala-D-Hiv-MeLeu-Leu-MeVal}] (cyclo([Hiv][dNMeL][dL][dNMeV][X24][d(aThr)][Sar][NMeL][dL][dNMeL][dA]))
